Assay results as given in ChEMBL document CHEMBL4507319 (2021).

Columns and labels:
[1] = target: Platelet-derived growth factor receptor alpha (Homo sapiens) (UniProt P16234); experiment: PDGFRalpha(h) Eurofins kinase panel; settings: Compound concentration 1.0 uM
[2] = target: Mitogen-activated protein kinase kinase kinase kinase 1 (Homo sapiens) (UniProt Q92918); experiment: HPK1(h) Eurofins kinase panel; settings: Compound concentration 1.0 uM
[3] = target: Calcium/calmodulin-dependent protein kinase type II subunit beta (Homo sapiens) (UniProt Q13554); experiment: CaMKIIbeta(h) Eurofins kinase panel; settings: Compound concentration 1.0 uM
[4] = system: NCI-H520; experiment: NCI- H520 cell line Proliferation assay; assay type: functional, Homo sapiens; settings: time 3 day
[5] = target: Fibroblast growth factor receptor 4 (Homo sapiens) (UniProt P22455); experiment: FGFR4(h) Eurofins kinase panel; settings: Compound concentration 1.0 uM
[6] = target: T1, Ephrin type-B receptor 3 (Homo sapiens) (UniProt P54753); experiment: EphB3(h) Eurofins kinase panel; settings: Compound concentration 1.0 uM
T1 sequence (whole entry): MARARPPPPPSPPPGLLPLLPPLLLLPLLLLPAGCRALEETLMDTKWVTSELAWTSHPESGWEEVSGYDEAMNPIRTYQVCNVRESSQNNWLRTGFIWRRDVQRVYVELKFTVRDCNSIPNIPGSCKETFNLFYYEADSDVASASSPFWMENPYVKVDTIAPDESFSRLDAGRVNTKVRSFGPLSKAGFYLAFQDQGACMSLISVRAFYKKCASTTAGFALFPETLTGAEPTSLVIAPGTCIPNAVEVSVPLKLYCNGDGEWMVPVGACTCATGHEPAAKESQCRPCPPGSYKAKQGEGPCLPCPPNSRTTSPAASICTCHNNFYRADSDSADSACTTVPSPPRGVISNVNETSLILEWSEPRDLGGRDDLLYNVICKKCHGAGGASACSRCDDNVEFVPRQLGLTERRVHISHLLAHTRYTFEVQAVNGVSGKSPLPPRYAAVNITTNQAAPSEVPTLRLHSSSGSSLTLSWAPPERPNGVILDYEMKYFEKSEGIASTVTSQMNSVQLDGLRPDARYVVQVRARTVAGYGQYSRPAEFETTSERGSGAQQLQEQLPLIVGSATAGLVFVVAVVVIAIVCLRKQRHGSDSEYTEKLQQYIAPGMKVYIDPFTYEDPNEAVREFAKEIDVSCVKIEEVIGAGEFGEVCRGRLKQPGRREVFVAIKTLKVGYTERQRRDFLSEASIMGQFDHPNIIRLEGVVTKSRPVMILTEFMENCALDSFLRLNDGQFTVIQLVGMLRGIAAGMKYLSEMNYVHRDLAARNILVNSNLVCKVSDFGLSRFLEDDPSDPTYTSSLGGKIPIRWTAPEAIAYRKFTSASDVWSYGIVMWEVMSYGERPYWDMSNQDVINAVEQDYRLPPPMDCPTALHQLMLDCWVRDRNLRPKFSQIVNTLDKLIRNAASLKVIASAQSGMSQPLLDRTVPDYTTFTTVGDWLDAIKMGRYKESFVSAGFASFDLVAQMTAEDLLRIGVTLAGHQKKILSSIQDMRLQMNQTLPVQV

[7] = target: T2, Serine/threonine-protein kinase ULK1 (Homo sapiens) (UniProt O75385); experiment: ULK1(h) Eurofins kinase panel; settings: Compound concentration 1.0 uM
T2 sequence (whole entry): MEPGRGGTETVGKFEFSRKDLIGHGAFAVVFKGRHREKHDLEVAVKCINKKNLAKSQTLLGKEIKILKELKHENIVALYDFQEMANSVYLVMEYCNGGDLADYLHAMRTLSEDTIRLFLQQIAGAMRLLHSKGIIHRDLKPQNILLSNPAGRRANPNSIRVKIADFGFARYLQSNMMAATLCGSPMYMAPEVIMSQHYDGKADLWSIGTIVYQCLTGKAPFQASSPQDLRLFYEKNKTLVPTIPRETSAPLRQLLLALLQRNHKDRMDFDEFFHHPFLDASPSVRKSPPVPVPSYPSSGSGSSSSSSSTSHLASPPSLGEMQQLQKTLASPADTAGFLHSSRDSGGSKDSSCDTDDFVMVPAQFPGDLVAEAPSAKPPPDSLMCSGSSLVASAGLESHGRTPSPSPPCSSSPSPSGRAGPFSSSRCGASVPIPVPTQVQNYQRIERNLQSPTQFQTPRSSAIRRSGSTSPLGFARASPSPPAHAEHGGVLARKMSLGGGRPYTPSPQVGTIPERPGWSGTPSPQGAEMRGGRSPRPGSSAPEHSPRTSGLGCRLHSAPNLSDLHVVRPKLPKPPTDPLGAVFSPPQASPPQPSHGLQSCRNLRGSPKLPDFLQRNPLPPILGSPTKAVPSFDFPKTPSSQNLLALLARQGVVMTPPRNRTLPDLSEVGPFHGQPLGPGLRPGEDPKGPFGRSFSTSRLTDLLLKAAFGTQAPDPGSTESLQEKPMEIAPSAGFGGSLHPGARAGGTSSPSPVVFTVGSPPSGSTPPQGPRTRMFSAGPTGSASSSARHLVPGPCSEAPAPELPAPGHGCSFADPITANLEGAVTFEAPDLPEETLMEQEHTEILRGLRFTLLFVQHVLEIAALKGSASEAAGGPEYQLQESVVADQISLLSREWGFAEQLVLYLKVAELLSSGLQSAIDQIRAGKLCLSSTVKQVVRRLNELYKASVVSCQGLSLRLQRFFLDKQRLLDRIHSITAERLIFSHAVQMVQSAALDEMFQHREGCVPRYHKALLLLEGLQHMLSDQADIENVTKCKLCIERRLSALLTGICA

[8] = system: OPM-2; experiment: OPM-2 cell line Proliferation assay; assay type: functional, Homo sapiens; settings: time 3 day
[9] = target: Serine/threonine-protein kinase MRCK beta (Homo sapiens) (UniProt Q9Y5S2); experiment: MRCKbeta(h) Eurofins kinase panel; settings: Compound concentration 1.0 uM
[10] = target: Serine/threonine-protein kinase N2 (Homo sapiens) (UniProt Q16513); experiment: PRK2(h) Eurofins kinase panel; settings: Compound concentration 1.0 uM

Chain of Fibroblast growth factor receptor 4 (Homo sapiens) (P22455 22-802 limits assumed): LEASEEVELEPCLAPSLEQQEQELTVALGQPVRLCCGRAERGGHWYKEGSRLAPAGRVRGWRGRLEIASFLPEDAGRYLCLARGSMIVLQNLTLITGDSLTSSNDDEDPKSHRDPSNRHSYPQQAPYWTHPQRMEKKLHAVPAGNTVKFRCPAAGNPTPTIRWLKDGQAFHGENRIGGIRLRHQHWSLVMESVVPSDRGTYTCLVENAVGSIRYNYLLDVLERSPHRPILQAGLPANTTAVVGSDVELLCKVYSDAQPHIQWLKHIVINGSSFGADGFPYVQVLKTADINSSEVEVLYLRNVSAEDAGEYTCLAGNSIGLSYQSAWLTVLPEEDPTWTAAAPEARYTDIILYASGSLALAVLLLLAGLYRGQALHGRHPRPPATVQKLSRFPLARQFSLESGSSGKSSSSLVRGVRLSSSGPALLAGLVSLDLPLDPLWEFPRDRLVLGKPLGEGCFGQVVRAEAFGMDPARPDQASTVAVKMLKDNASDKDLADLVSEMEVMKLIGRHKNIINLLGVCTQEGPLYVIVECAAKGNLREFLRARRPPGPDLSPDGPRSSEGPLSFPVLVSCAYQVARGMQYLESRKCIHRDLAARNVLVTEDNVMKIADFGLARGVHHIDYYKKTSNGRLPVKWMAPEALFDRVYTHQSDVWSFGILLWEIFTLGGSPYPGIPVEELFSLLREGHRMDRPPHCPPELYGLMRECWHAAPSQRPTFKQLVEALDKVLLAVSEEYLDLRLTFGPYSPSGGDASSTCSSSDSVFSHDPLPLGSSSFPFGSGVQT
Chain of Serine/threonine-protein kinase MRCK beta (Homo sapiens) (Q9Y5S2 whole entry): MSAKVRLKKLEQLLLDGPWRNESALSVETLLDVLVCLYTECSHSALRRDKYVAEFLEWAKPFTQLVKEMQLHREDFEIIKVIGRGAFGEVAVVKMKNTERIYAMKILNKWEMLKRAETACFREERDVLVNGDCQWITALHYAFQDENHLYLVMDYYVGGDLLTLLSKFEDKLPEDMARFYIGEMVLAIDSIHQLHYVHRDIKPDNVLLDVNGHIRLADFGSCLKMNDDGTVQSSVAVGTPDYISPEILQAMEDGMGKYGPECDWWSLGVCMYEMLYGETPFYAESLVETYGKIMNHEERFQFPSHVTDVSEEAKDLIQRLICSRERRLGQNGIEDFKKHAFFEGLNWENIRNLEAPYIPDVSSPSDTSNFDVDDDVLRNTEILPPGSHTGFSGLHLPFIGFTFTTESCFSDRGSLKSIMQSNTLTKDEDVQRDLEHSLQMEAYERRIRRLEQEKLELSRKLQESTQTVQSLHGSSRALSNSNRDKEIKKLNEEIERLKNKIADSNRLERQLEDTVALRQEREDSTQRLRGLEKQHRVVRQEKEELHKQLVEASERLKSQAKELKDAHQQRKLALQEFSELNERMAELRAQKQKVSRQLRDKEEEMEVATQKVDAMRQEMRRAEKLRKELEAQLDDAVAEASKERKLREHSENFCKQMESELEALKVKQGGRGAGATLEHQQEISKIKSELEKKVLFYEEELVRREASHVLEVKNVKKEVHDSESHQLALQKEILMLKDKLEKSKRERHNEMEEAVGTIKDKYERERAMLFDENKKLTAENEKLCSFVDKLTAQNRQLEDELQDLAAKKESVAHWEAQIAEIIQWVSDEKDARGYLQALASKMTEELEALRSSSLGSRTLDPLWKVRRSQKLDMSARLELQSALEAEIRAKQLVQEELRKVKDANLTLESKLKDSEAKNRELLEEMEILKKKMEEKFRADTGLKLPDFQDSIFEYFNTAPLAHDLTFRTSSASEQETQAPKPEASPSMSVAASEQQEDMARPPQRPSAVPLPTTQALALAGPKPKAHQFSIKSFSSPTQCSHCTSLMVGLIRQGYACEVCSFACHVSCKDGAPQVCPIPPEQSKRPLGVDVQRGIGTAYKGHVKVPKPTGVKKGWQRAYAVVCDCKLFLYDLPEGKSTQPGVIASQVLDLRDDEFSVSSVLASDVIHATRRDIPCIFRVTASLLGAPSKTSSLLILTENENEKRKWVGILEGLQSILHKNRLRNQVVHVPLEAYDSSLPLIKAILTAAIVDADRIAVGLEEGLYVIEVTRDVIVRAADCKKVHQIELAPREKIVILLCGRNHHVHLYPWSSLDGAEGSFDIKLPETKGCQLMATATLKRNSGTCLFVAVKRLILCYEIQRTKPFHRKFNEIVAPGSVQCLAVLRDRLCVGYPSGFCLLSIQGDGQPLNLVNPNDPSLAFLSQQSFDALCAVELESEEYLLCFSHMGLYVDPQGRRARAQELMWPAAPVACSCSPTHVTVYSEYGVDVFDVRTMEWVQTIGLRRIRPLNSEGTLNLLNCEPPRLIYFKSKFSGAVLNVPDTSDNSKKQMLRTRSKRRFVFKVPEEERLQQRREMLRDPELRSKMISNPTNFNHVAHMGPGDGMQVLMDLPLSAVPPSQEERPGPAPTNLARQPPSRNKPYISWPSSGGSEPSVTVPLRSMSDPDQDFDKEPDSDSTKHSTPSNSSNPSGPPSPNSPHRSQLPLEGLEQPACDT
Chain of Mitogen-activated protein kinase kinase kinase kinase 1 (Homo sapiens) (Q92918 whole entry, looked up): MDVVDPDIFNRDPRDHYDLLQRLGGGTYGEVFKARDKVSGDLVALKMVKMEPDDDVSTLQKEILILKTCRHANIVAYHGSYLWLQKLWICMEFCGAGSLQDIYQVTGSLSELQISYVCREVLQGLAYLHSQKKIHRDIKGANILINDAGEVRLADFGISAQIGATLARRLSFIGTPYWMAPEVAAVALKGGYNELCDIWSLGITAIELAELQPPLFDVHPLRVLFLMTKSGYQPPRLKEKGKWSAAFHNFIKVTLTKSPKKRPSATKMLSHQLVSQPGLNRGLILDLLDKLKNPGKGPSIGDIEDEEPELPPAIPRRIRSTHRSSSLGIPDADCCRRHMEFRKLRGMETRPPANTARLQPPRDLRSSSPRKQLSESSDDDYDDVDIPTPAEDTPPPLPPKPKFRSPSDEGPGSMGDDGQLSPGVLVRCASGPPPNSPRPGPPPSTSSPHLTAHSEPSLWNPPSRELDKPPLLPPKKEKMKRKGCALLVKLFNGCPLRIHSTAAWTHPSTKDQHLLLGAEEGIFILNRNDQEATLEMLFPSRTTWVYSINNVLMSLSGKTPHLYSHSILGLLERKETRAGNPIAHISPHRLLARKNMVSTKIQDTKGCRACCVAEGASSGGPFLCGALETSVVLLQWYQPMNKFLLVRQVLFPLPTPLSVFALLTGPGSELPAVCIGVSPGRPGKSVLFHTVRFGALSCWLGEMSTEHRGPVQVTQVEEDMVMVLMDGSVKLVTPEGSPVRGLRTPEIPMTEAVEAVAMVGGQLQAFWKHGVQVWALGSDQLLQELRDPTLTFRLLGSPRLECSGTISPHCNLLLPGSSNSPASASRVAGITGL
Chain of Platelet-derived growth factor receptor alpha (Homo sapiens) (P16234 whole entry): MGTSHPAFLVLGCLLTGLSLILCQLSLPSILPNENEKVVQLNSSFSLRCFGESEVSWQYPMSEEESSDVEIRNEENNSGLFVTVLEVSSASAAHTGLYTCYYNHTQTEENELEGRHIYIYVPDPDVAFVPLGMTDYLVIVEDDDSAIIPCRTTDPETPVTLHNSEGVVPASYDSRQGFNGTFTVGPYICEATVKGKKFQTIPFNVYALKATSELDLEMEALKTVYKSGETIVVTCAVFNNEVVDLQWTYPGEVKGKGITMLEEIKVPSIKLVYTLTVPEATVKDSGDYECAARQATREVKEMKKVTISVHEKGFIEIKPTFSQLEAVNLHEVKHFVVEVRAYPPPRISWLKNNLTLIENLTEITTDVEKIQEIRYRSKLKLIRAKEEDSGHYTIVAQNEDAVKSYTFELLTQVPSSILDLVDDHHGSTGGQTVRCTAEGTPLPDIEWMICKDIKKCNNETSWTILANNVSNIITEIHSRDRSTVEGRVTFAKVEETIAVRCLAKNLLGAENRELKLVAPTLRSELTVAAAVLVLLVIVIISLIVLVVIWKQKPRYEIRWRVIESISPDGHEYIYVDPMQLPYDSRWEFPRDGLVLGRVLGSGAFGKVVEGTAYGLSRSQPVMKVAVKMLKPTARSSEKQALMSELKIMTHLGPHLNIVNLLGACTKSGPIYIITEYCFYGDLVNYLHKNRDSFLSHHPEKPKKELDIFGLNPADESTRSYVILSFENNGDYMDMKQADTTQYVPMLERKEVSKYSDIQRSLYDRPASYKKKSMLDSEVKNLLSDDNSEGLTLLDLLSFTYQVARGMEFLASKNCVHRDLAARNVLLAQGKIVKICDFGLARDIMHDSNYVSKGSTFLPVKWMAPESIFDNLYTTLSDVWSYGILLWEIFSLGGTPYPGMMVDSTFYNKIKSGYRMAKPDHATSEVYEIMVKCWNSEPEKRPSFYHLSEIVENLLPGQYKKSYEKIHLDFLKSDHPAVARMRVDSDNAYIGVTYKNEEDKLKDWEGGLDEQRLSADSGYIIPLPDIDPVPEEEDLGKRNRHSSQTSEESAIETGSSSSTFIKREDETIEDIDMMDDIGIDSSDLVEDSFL
Chain of Calcium/calmodulin-dependent protein kinase type II subunit beta (Homo sapiens) (Q13554 whole entry): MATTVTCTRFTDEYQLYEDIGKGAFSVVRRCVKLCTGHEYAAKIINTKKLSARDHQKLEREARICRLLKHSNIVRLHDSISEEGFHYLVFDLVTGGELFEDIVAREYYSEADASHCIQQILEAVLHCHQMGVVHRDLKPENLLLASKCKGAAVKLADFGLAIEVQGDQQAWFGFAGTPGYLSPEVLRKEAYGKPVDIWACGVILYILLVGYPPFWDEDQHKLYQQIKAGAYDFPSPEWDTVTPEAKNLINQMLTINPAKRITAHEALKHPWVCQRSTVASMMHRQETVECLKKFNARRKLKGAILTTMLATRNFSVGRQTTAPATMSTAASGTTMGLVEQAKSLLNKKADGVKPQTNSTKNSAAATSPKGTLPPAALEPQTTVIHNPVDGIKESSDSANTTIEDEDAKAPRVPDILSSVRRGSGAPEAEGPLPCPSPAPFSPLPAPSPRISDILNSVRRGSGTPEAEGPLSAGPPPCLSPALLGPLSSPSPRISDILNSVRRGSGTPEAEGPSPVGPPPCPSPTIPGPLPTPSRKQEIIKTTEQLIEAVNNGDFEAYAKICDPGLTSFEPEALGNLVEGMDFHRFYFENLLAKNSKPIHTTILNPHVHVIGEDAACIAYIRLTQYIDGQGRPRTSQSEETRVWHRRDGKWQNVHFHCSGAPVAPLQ

In the case of `CCc1ccccc1C(=O)Nc1n[nH]c2c(C)c(F)c(C3C(C#N)=C(C)N(C)C(C)=C3C#N)cc12` [BAY-3827], the % residual kinase activity [1] is reported as 102%, the % residual kinase activity [2] is reported as 57% and the % residual kinase activity [3] is reported as 100%. For the same compound, the “Cell Proliferation IC50” value [4] was 24.1 µM, the % residual kinase activity [5] was 99% and the % residual kinase activity [6] was 109%. The % residual kinase activity [7] was 26%, the “Cell Proliferation IC50” value [8] was 1.5 µM and the % residual kinase activity [9] was 109%. For the same compound, the % residual kinase activity [10] was 93%.
